Data taken from patent US20230292747A1, “Composition for use in agriculture” (Bayer Aktiengesellschaft, priority 2020, published 2023).
Like-named read-outs stand apart in the source and are kept apart here.

Columns and labels:
[1] = Measurement of water hardness before and after adding softeners (AQUADUR test strips); assay type: physicochemical
Protocol: (§1) • Soft water (Milli-Q water), self made hard water and very hard water collected from the field (sample A) were used in the assays. Self made hard water was prepared by adding magnesium sulfate to the tap water (440 mg MgSO4/1 L tap water) to achieve 25° d (˜445 ppm). […] The water softeners were used in concentrations described in Table 2. First, the softeners were added to Sample A, self made hard and soft water samples and the water hardness was determined with test strips (see Table 3). Next, Flipper (0,5%, corresponding to a fatty acid derivative content of 2.4 g/l) was mixed to the different water plus softener solutions and subsequently the samples were sprayed on plants infected with aphids. Additionally, another biological product based on fatty acid derivatives (product Neudosan® Neu available from Certis Europe B.V.) was tested in combination with the softener Slox and a softener based on TSCA(in the following named “Coded” (for concentrations see Table 2) in hard vs soft water against aphids as described above. The efficacy of Neudosan (0,5% and 1% corresponding to a fatty acid derivative content of 2.575 g/l and 5,15 g/1) was compared to the efficacy of Flipper (0,5% and 1% corresponding to a fatty acid derivative content of 2.4 g/l and 4,8 g/1) with and without softeners (see Table 5). • Four single-leaf pepper or cotton plants infected with mixed population of Myzus persicae or Aphis gossypii were used in the bioassays. The infected plants were sprayed with the prepared solutions by using an automatic spraying system machine with integrated residue drying and afterwards incubated in a greenhouse chamber under controlled conditions (25±1° C. and 55±5% RH).

Myzus persicae = test: Aphid spray bioassay on infected pepper plants, insect mortality on day seven post treatment; assay type: in vivo; conditions: day 7
Protocol: (§2) • The laboratory colonies of Myzus persicae and Aphis gossypii were reared on pea and cotton plants under controlled conditions 25±1° C. and a 55±5% relative humidity. • Experiments were conducted at RT using pepper (Capsicum annuum) for Myzus persicae and cotton (Gossypium herbaceum) for Aphis gossypii.
as §1
(§3) The tests were conducted according to the protocol described in Example 1.

Aphis gossypii = test: Aphid spray bioassay on infected cotton plants, insect mortality on day seven post treatment; assay type: in vivo
Protocol: as §2, §1, §3

pepper (Capsicum annuum) = assay type: in vivo; conditions: pepper plants
[2] = test system: cotton (Gossypium herbaceum); conditions: cotton plants
Protocol: as §2
• Soft water (Milli-Q water), self made hard water and very hard water collected from the field (sample A) were used in the assays. Self made hard water was prepared by adding magnesium sulfate to the tap water (440 mg MgSO4/1 L tap water) to achieve 25° d (˜445 ppm). […] The water softeners were used in concentrations described in Table 2. First, the softeners were added to Sample A, self made hard and soft water samples and the water hardness was determined with test strips (see Table 3). Next, Flipper (0,5%, corresponding to a fatty acid derivative content of 2.4 g/l) was mixed to the different water plus softener solutions and subsequently the samples were sprayed on plants infected with aphids. […]

[3] = field collected water Sample A (>25 °D before), softener at % printed in row
[4] = field collected water Sample A (>445 ppm before), converted 1 °D = 17.8 ppm
[5] = self made hard water (25 °D before), softener at % printed in row
[6] = self made hard water (445 ppm before), converted 1 °D = 17.8 ppm
[7] = soft water (0 ppm before), converted 1 °D = 17.8 ppm
[8] = soft water (Milli-Q, 0 °D before), softener at % printed in row
[9] = 0.5% Flipper + named softener (% printed in row) in self made hard water
[10] = 0.5% Flipper + named softener (% printed in row) in soft water
[11] = 0.5% Flipper + named softener (% printed in row) in self made hard water, cotton, day 7
[12] = 0.5% Flipper + named softener in self made hard water
[13] = 0.5% Flipper + named softener in soft water

SMILES	Water hardness after adding softener [1, 3]	Water hardness after adding softener [1, 4]	Water hardness after adding softener [1, 5]	Water hardness after adding softener [1, 6]	Water hardness after adding softener [1, 7]	Water hardness after adding softener [1, 8]	Efficacy of 0.5% Flipper against Myzus persicae, after adding softeners (Myzus persicae; [9])	Efficacy of 0.5% Flipper against Myzus persicae, after adding softeners (Myzus persicae; [10])	Efficacy of 0.5% Flipper against Aphis gossypii, after adding softeners (Aphis gossypii; [11])	Efficacy of 0.5% Flipper against Aphis gossypii, after adding softeners (Aphis gossypii; in vivo)	PTX (pepper (Capsicum annuum); [12])	PTX (pepper (Capsicum annuum); [13])	PTX [2, 12]	PTX [2, 13]	Efficacy of 0.5% Flipper against Aphis gossypii, after adding softeners (Aphis gossypii; 0.5% Flipper + named softener (% printed in row) in soft water, cotton, day 7)
O=C(O)CN(CCN(CC(=O)O)CC(=O)O)CC(=O)O [EDTA, Ethylene diamine tetraacetate]	0 °D	0 ppm	0 °D	0 ppm	0 ppm	0 °D	81.25%	97%	65%	72.5 (slight %	strong	Strong	slight	72.5 (slight	–
O=C([O-])CC(O)(CC(=O)[O-])C(=O)[O-].[Na+].[Na+].[Na+] [TSCA, Trisodium citric acid]	20 °D	356 ppm	20 °D	356 ppm	0 ppm	0 °D	55%	67.5%	55%	–	–	–	–	–	70%
